We go through 30 compounds from US12516046B2, “2-oxo-oxazolidine-5-carboxamides as NAV1.8 inhibitors” (Merck Sharp & Dohme LLC, priority 2020, dated 2026).

For the assay, the target named is human Nav1.8 (Homo sapiens (Human), UniProt Q9Y5Y9). The experiment in a line: Nav1.8 Qube® Assay (automated 384-well patch-clamp). Format: cell-based. As to conditions: human Nav1.8 channels stably expressed in HEK 293 cells. The text has this: Qube® Assay Experimental Procedure
(In general: Patch clamp records ionic current or voltage across a cell membrane.)

Chain of human Nav1.8 (Q9Y5Y9 whole entry): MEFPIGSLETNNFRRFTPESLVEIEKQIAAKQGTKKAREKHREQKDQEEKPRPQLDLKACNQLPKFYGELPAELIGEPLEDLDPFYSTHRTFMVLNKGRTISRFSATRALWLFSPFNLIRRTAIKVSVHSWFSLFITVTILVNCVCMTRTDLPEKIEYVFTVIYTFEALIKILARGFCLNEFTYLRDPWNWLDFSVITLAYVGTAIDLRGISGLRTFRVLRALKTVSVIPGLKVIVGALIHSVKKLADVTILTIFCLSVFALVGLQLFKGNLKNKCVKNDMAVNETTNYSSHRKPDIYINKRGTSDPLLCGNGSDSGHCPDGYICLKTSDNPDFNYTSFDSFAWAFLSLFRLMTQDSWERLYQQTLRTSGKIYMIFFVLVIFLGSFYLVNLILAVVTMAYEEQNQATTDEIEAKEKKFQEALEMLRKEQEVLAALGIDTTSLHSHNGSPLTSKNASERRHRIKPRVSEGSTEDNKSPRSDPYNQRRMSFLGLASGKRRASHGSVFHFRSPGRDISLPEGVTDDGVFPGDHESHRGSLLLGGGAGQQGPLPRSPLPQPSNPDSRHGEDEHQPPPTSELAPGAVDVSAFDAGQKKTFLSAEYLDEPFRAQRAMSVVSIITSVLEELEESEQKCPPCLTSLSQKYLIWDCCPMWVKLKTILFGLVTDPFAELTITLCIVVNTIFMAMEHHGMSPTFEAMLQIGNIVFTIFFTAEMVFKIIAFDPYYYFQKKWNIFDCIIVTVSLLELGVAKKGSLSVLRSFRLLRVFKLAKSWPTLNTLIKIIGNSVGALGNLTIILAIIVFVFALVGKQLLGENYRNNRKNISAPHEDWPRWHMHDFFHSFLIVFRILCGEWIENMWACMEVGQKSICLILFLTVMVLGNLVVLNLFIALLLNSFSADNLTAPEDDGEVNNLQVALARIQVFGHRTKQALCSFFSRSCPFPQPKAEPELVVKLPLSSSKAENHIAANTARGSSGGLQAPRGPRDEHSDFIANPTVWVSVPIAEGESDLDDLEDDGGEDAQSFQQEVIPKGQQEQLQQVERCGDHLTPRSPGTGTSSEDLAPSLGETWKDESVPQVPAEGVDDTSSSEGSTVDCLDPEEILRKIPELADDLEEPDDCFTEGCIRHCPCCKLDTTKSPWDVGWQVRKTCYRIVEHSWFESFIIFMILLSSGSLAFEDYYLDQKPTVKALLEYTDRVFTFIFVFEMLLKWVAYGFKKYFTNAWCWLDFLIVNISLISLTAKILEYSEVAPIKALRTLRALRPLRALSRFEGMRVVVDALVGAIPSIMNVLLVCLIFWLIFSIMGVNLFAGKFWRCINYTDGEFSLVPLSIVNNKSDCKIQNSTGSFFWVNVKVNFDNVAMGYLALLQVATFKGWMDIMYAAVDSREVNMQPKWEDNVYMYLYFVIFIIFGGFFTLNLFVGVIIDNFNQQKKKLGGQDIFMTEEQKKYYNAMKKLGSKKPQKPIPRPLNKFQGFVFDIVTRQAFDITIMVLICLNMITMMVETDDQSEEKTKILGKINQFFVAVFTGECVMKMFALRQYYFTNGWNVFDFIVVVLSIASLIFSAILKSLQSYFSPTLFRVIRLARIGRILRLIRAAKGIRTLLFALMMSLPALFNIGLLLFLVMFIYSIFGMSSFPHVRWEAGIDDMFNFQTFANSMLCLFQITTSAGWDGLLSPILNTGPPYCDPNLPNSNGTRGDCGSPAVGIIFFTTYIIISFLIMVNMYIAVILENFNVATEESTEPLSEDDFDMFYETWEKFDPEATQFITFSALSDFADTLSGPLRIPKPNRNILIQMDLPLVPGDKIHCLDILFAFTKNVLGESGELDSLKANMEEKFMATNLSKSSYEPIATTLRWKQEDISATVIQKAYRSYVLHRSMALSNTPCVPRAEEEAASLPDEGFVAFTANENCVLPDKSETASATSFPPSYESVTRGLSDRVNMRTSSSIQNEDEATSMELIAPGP

Broadly, the IC50 is the point on the concentration scale where inhibition reaches its midpoint. Low values mean greater potency in that assay, high ones weaker potency in that assay. On to `O=C1NC[C@@H](C(=O)NC(c2ccc(F)c(Cl)c2F)[C@@H]2C[C@@H]3[C@H](C2)C3(F)F)O1` (single isomer, unassigned) [Example 74A, (S)-N-((R or S)-(3-chloro-2,4-difluorophenyl) ((trans)-6,6-difluorobicyclo[3.1.0]hexan-3-yl)methyl)-2-oxooxazolidine-5-carboxamide], for which it took 11 nM to reach half-maximal inhibition (IC50).

The compound `O=C1NC[C@@H](C(=O)NC(c2ccc(Cl)cc2)c2ccc(Cl)cc2OC(F)(F)F)O1` (single isomer, unassigned) [Example 47A, (S)-N-((R or S)-(4-chloro-2-(trifluoromethoxy)phenyl)(4-chlorophenyl)methyl)-2-oxooxazolidine-5-carboxamide] yielded an IC50 of 1.6 nM.

In turn, `O=C1NC[C@@H](C(=O)NC(c2ccc(F)c(Cl)c2F)[C@@H]2CC[C@@H](C(F)(F)F)CO2)O1` (single isomer, unassigned) [Example 9B] displayed an IC50 of 9.5 nM.

`O=C1NC[C@@H](C(=O)NC(c2ccc(Cl)cc2)c2cccs2)O1` (stereo partly drawn) [Example 24, (5S)-N-((4-chlorophenyl)(thio-phen-2-yl)methyl)-2-oxooxazolidine-5-carboxamide] registered an IC50 of 144 nM.

`O=C1NC[C@@H](C(=O)NC(c2ccc(F)c(Cl)c2)c2cnn(CC(F)(F)F)c2)O1` (single isomer, unassigned) [Example 59A, (S)-N-((R or S)-(3-chloro-4-fluorophenyl)(1-(2,2,2-trifluoroethyl)-1H-pyrazol-4-yl)methyl)-2-oxooxazolidine-5-carboxamide]: the IC50 was found to be 171 nM.

`O=C1NC[C@@H](C(=O)NC(c2ccc(F)c(Cl)c2)c2ccc(Cl)cn2)O1` (single isomer, unassigned) [Example 14B, (S)-N-((R or S)-(3-chloro-4-fluorophenyl)(5-chloropyridin-2-yl)methyl)-2-oxooxazolidine-5-carboxamide]: the IC50 is 34 nM.

For the compound `O=C1NC[C@@H](C(=O)NC(c2ccc(F)c(Cl)c2)c2ccc(F)c(Cl)c2)O1` [Example 10, (S)-N-(bis(3-chloro-4-fluorophenyl)methyl)-2-oxooxazolidine-5-carboxamide], it took 0.7 nM to reach half-maximal inhibition (IC50).

With `COc1ccc(Cl)cc1C(NC(=O)[C@@H]1CNC(=O)O1)c1cccc(Cl)c1` (single isomer, unassigned) [Example 28A, (S)-N-((R or S)-(5-chloro-2-methoxyphenyl)(3-chlorophenyl)methyl)-2-oxooxazolidine-5-carboxamide], the IC50 worked out at 21 nM.

`O=C1NC[C@@H](C(=O)NC(CCc2ccc(Cl)cc2)c2ccc(F)c(Cl)c2F)O1` (single isomer, unassigned) [Example 65A, (S)—N—((R or S)-1-(3-chloro-2,4-difluorophenyl)-3-(4-chlorophenyl)propyl)-2-oxooxazolidine-5-carboxamide] gave an IC50 of 94 nM.

`O=C1NC[C@@H](C(=O)NC(c2ccc(F)c(Cl)c2)c2cnn(CC(F)(F)F)c2)O1` (single isomer, unassigned) [Example 59B, (S)-N-((R or S)-(3-chloro-4-fluorophenyl)(1-(2,2,2-trifluoroethyl)-1H-pyrazol-4-yl)methyl)-2-oxooxazolidine-5-carboxamide] displayed an IC50 of 693 nM.

For the compound `O=C1NC[C@@H](C(=O)NC(c2ccc(Cl)cc2)C23CCC(CC2)C3)O1` (single isomer, unassigned) [Example 3B, (S)-N-((R or S)-bicyclo[2.2.1]heptan-1-yl(4-chlorophenyl)methyl)-2-oxooxazolidine-5-carboxamide], the IC50 is 1460 nM.

Regarding `O=C1NC[C@@H](C(=O)NC(c2ccc(Cl)cc2)C23CC(C(F)(F)F)(C2)C3)O1` (single isomer, unassigned) [Example 4B, (S)-N-((R or S)-(4-chlorophenyl)(3-(trifluoromethyl)bicyclo[1.1.1]pentan-1-yl)methyl)-2-oxooxazolidine-5-carboxamide], half-maximal inhibition (IC50) was put at 312 nM.

Compound `O=C1NC[C@@H](C(=O)NC(COc2ccc(C(F)(F)F)nc2)c2ccc(F)c(Cl)c2)O1` (stereo partly drawn) [Example 66, (5S)-N-(1-(3-chloro-4-fluorophenyl)-2-((6-(trifluoro-methyl)pyridin-3-yl)oxy)ethyl)-2-oxooxazolidine-5-carboxamide] displayed an IC50 of 268 nM.

In turn, `O=C1NC[C@@H](C(=O)NC(c2ccc(OC(F)F)cc2)c2ccc(F)c(Cl)c2)O1` (single isomer, unassigned) [Example 48A, (S)-N-((R or S)-(3-chloro-4-fluorophenyl)(4-(difluoromethoxy)phenyl)methyl)-2-oxooxazolidine-5-carboxamide] showed an IC50 of 2.7 nM.

On to `CC1(C(=O)NC(c2ccc(Cl)cc2)c2ccc(Cl)cc2)CNC(=O)O1` (single isomer, unassigned) [Example 7A, (R or S)—N-(bis(4-chlorophenyl)methyl)-5-methyl-2-oxooxazolidine-5-carboxamide], for which half-maximal inhibition (IC50) was put at 14900 nM.

Regarding `O=C1NC[C@@H](C(=O)NC(c2ccc(Cl)c(C(F)(F)F)n2)C2CCC(F)(F)CC2)O1` (single isomer, unassigned) [Example 63A, (S)-N-((R or S)-(5-chloro-6-(trifluoromethyl)pyridin-2-yl)(4,4-difluoro-cyclohexyl)methyl)-2-oxooxazolidine-5-carboxamide], the IC50 was determined as 12 nM.

The compound `O=C1NC[C@@H](C(=O)NC(c2ccc(Cl)cc2)c2ccc(C(F)(F)F)cn2)O1` (single isomer, unassigned) [Example 37B, (S)-N-((R or S)-(4-chlorophenyl)(5-(trifluoromethyl)pyridin-2-yl)methyl)-2-oxooxazolidine-5-carboxamide] gave an IC50 of 26 nM.

In turn, `O=C1NC[C@@H](C(=O)NC(c2ccc(Cl)cc2)C2CCC(F)(F)C2)O1` (single isomer, unassigned) [Example 57A, (S)-N-((R or S)-(4-chlorophenyl)((R or S)-3,3-difluorocyclopentyl)methyl)-2-oxooxazolidine-5-carboxamide] had an IC50 of 3450 nM.

On to `O=C1NC[C@@H](C(=O)NC(c2ccc(F)c(Cl)c2)c2csc(C(F)(F)F)n2)O1` (single isomer, unassigned) [Example 44A, (S)—N—((R or S)-(3-chloro-4-fluorophenyl)(2-(trifluoromethyl)thiazol-4-yl)methyl)-2-oxooxazolidine-5-carboxamide], for which the midpoint of inhibition, the IC50, lay at 4.6 nM.

Compound `Cc1cc(C(NC(=O)[C@@H]2CNC(=O)O2)c2ccc(Cl)cc2)ccc1Cl` (single isomer, unassigned) [Example 46A, (S)-N-((R or S)-(4-chloro-3-methylphenyl)(4-chlorophenyl)methyl)-2-oxooxazolidine-5-carboxamide] yielded an IC50 of 0.6 nM.

`O=C1NC[C@@H](C(=O)NC(c2ccc(Cl)cc2)c2ccnc(C(F)(F)F)n2)O1` (single isomer, unassigned) [Example 11A, (S)-N-((R or S)-(4-chlorophenyl)(2-(trifluoromethyl)pyrimidin-4-yl)methyl)-2-oxooxazolidine-5-carboxamide]: the IC50 came to 23 nM.

As to `CC1NC(=O)OC1C(=O)NC(c1ccc(Cl)cc1)c1ccc(Cl)cc1` (single isomer, unassigned) [Example 6A, (cis or trans)-N-(bis(4-chlorophenyl)methyl)-4-methyl-2-oxooxazolidine-5-carboxamide], the IC50 was 442 nM.

For `O=C1NC[C@@H](C(=O)NC(c2ccc(Cl)cc2)C2CCN(CC(F)(F)F)CC2)O1` (single isomer, unassigned) [Example 42B, (S)-N-((R or S)-(4-chlorophenyl)(1-(2,2,2-trifluoroethyl)piperidin-4-yl)methyl)-2-oxooxazolidine-5-carboxamide], the IC50 turned out to be 272 nM.

In the case of `O=C1NC[C@@H](C(=O)NC(c2ccc(F)c(Cl)c2)C2CCN(CC(F)(F)F)C2)O1` (single isomer, unassigned) [Example 43B, (S)-N-((R or S)-(3-chloro-4-fluorophenyl)((R or S)-1-(2,2,2-trifluoroethyl)pyrrolidin-3-yl)methyl)-2-oxooxazolidine-5-carboxamide], it took 807 nM to reach half-maximal inhibition (IC50).

With `O=C1NC[C@@H](C(=O)NC(c2ccc(OC(F)(F)F)c(Cl)c2)c2cnn(C(F)(F)F)c2)O1` (single isomer, unassigned) [Example 53A, (S)-N-((R or S)-(3-chloro-4-(trifluoro-methoxy)phenyl)(1-(trifluoromethyl)-1H-pyrazol-4-yl)methyl)-2-oxooxazolidine-5-carboxamide], the midpoint of inhibition, the IC50, lay at 22 nM.

On to `O=C1NC[C@@H](C(=O)NC(c2ccc(OCC(F)(F)F)nc2)c2ccc(F)c(Cl)c2F)O1` (single isomer, unassigned) [Example 50A, (S)—N—((R or S)-(3-chloro-2,4-difluorophenyl)(6-(2,2,2-trifluoroethoxy)pyridin-3-yl)methyl)-2-oxo-oxazolidine-5-carboxamide], for which the IC50 was determined as 1.6 nM.

In turn, `O=C1NC[C@@H](C(=O)NC(COc2ccc(F)c(Cl)c2)c2ccc(F)c(Cl)c2)O1` (single isomer, unassigned) [Example 8B, (S)—N—((R or S)-2-(3-chloro-4-fluorophenoxy)-1-(3-chloro-4-fluorophenyl)ethyl)-2-oxooxazolidine-5-carboxamide] registered a half-inhibitory concentration (IC50) of 4.6 nM.

Take `CC1(C(=O)NC(c2ccc(Cl)cc2)c2ccc(Cl)cc2)CNC(=O)O1` (single isomer, unassigned) [Example 7B, (R or S)—N-(bis(4-chlorophenyl)methyl)-5-methyl-2-oxooxazolidine-5-carboxamide]: the IC50 worked out at 2030 nM.

For the compound `Cn1nc(C(NC(=O)[C@@H]2CNC(=O)O2)c2ccc(F)c(Cl)c2)cc1C(F)(F)F` (single isomer, unassigned) [Example 62B, (S)-N-((R or S)-(3-chloro-4-fluorophenyl)(1-methyl-5-(trifluoromethyl)-1H-pyrazol-3-yl)methyl)-2-oxooxazolidine-5-carboxamide], the IC50 came out at 11 nM.

`O=C1NC[C@@H](C(=O)NC(c2ccccc2)c2ccc(Cl)c(Cl)c2)O1` (single isomer, unassigned) [Example 25B, (S)-N-((R or S)-(3,4-dichlorophenyl) (phenyl)methyl)-2-oxooxazolidine-5-carboxamide] had an IC50 of 14 nM.
